The source of these data is US9561231B2 (AbbVie Inc., priority 2012, dated 2017).

Read-outs that look alike come from different tables or passages of the source.

One may read the Ki as a dissociation constant, usually derived from enzyme kinetics or from competition with a known ligand.

In assay [1] the target is T1, second (BD2: amino acids E352-E168) bromodomain of BRD4 (Homo sapiens, UniProt O60885).
T1 construct: protocol
The experiment in a line: TR-FRET bromodomain binding assay, BRD4 BD2. Particulars: Ki calculated from IC50, probe Kd and probe concentration, read-out: TR-FRET Binding Ki: BRD4 (BDII_E352-M457). In outline: (§1)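 TR-FRET probe competition, His-tagged bromodomain, Alexa647-labeled BET-inhibitor tracer. Ki from IC50 via probe Kd.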

For assay [2], the target named is T2, first (BD1: amino acids K57-E168) bromodomain of BRD4 (Homo sapiens, UniProt O60885).
T2 construct: His-tagged first (BD1: amino acids K57-E168)
The experiment in a line: TR-FRET bromodomain binding assay, BRD4 BD1. The settings on record: Ki calculated from IC50, probe Kd and probe concentration, read-out: TR-FRET Binding Ki: BRD4 (BDI_K57-E168). In outline:
as §1

Assay [3] concerns breast cancer cell line MX-1. The experiment in a line: MX-1 cell line proliferation assay (3-day). It counts as cell-based. Particulars: Homo sapiens, MX1, MX-1 cells, Cell Titer Glo, read-out: Cellular proliferation: EC50. The gist of the method:
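EC50 derived by sigmoidal fitting of Cell Titer Glo signal relative to DMSO controls. Compound, 3 μM down to 0.0001 μM final in 3-fold steps, was added to adhered MX-1 cells (5000/well, RPMI + 10% FBS) for a 3-day incubation at 37° C.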
A general note: In ATP-based viability assays light output follows the ATP content of the culture.

Setting [4] is: TR-FRET assay protocol (A-G, compound concentration range).
[5] abbreviates: TR-FRET assay protocol (D, E or G) per compound.

Take `COc1cc(=O)n(C)nc1-c1cc(N)ccc1Oc1ccccc1` [Example 20, 6-(5-amino-2-phenoxyphenyl)-5-methoxy-2-methylpyridazin-3(2H)-one]: the Ki in assay [1] (setting [4]) is 524 nM; in assay [2] (setting [4]) it was 2700 nM. Besides, the EC50 in assay [3] (72 h incubation) amounted to 7160 nM.
In the case of `COC(=O)c1cc(=O)n(C)nc1-c1ccccc1Oc1ccccc1` [Example 218, methyl 1-methyl-6-oxo-3-(2-phenoxyphenyl)-1,6-dihydropyridazine-4-carboxylate], the Ki in assay [1] (setting [4]) is 1140 nM; in assay [2] (setting [4]) it was 778 nM. The EC50 in assay [3] (72 h incubation) is 9700 nM.
For `CCOc1cc(=O)n(C)cc1-c1cc(CS(=O)(=O)CC)ccc1Oc1ccc(F)cc1F` [Example 379, 5-{2-(2,4-difluorophenoxy)-5-[(ethylsulfonyl)methyl]phenyl}-4-ethoxy-1-methylpyridin-2(1H)-one], the inhibitory constant (Ki) in assay [1] (setting [5]) was 16.1 nM; in assay [2] (setting [5]) it was 62.1 nM. The EC50 in assay [3] (72 hours with compound) is 126 nM.
On to `CCN(CC)CC#CCOc1cc(=O)n(C)cc1-c1cc(NS(=O)(=O)CC)ccc1Oc1ccc(F)cc1F` [Example 328, N-[3-(4-{[4-(diethylamino)but-2-yn-1-yl]oxy}-1-methyl-6-oxo-1,6-dihydropyridin-3-yl)-4-(2,4-difluorophenoxy)phenyl]ethanesulfonamide], for which the results for the Ki in assay [1] (setting [4]) and in assay [2] (setting [4]) were 14.6 nM and 7.1 nM, respectively. Besides, the EC50 in assay [3] (72 h incubation) was found to be 72.7 nM.
Consider `COC(=O)/C=C/c1cc(=O)n(C)nc1-c1ccccc1Oc1ccccc1` [Example 219, methyl (2E)-3-[1-methyl-6-oxo-3-(2-phenoxyphenyl)-1,6-dihydropyridazin-4-yl]prop-2-enoate], for which the values for the Ki in assay [1] (setting [4]) and in assay [2] (setting [4]) were 308 nM and 7250 nM, respectively. Further, in assay [3] (72 h incubation), the EC50 was 5500 nM.
For the compound `CCS(=O)(=O)c1ccc(OCC2CC2)c(-c2cn(C)c(=O)cc2OC)c1` [Example 275, 5-[2-(cyclopropylmethoxy)-5-(ethylsulfonyl)phenyl]-4-methoxy-1-methylpyridin-2(1H)-one], the Ki in assay [1] (setting [4]) is 119 nM; in assay [2] (setting [4]), 55.9 nM. The EC50 in assay [3] (72 h incubation) turned out to be 223 nM.
For the compound `CCS(=O)(=O)c1ccc(Oc2ccc(F)cc2F)c(-c2cn(C)c(=O)cc2OC2COC2)c1` [Example 318, 5-[2-(2,4-difluorophenoxy)-5-(ethylsulfonyl)phenyl]-1-methyl-4-(oxetan-3-yloxy)pyridin-2(1H)-one], the Ki in assay [1] (setting [4]) is 15.3 nM; in assay [2] (setting [4]), 156 nM. For the same compound, in assay [3] (72 h incubation), the EC50 is 42.7 nM.
Taken in the same sequence, the figures for `CCS(=O)(=O)Nc1ccc(Oc2ccc(F)cc2F)c(-c2cn(C)c(=O)cc2OCc2ccc(CN3CCOCC3)cc2)c1` [Example 315, N-[4-(2,4-difluorophenoxy)-3-(1-methyl-4-{[4-(morpholin-4-ylmethyl)benzyl]oxy}-6-oxo-1,6-dihydropyridin-3-yl)phenyl]ethanesulfonamide] were 0.39 nM, 2.51 nM and 55.6 nM.
As for `CC1CCN(Cc2ccc(-c3cc(=O)n(C)nc3-c3ccccc3Oc3ccccc3)cc2)CC1` [Example 68, 2-methyl-5-{4-[(4-methylpiperidin-1-yl)methyl]phenyl}-6-(2-phenoxyphenyl)pyridazin-3(2H)-one], the Ki in assay [1] (setting [4]) was 71.9 nM; in assay [2] (setting [4]), 63.1 nM. Moreover, the EC50 in assay [3] (72 h incubation) came to 1110 nM.
The matching figures for `Cn1nc(-c2ccccc2Oc2ccccc2)c(-c2ccc(C3=NCCCO3)cc2)cc1=O` [Example 95, 5-[4-(5,6-dihydro-4H-1,3-oxazin-2-yl)phenyl]-2-methyl-6-(2-phenoxyphenyl)pyridazin-3(2H)-one]: 145 nM, 172 nM and > 3000 nM.
Taken in the same sequence, the figures for `COC(=O)CCc1ccc(-c2cc(=O)n(C)nc2-c2ccccc2Oc2ccccc2)cc1` [Example 92, methyl 3-{4-[1-methyl-6-oxo-3-(2-phenoxyphenyl)-1,6-dihydropyridazin-4-yl]phenyl}propanoate] were 455 nM, 770 nM and 1130 nM.
For `Cn1cc(-c2cc(NC(=O)CN)ccc2Oc2ccccc2)ccc1=O` [Example 253, N-[3-(1-methyl-6-oxo-1,6-dihydropyridin-3-yl)-4-phenoxyphenyl]glycinamide], the Ki is 3290 nM in assay [1] (setting [4]) and 942 nM in assay [2] (setting [4]). Also, the EC50 in assay [3] (72 h incubation) is > 3000 nM.
With `CCOc1cc(=O)n(C)cc1-c1cc(S(=O)(=O)CC)ccc1Oc1ccc(OC(F)(F)F)cc1` [Example 377, 4-ethoxy-5-{5-(ethylsulfonyl)-2-[4-(trifluoromethoxy)phenoxy]phenyl}-1-methylpyridin-2(1H)-one], the Ki in assay [1] (setting [5]) is 6.41 nM; in assay [2] (setting [5]) it was 53.4 nM. Also, the EC50 in assay [3] (72 hours with compound) was found to be 92.4 nM.
The matching figures for `CCS(=O)(=O)Nc1ccc(Oc2ccc(F)cc2F)c(-c2cn(C)c(=O)cc2OCC(C)(C)O)c1` [Example 376, N-{4-(2,4-difluorophenoxy)-3-[4-(2-hydroxy-2-methylpropoxy)-1-methyl-6-oxo-1,6-dihydropyridin-3-yl]phenyl}ethanesulfonamide]: 17.1 nM, 123 nM and 708 nM.
Turning to `CCS(=O)(=O)Nc1ccc(Oc2ccc(F)cc2F)c(-c2cn(C)c(=O)cc2-c2ccco2)c1` [Example 392, N-{4-(2,4-difluorophenoxy)-3-[4-(furan-2-yl)-1-methyl-6-oxo-1,6-dihydropyridin-3-yl]phenyl}ethanesulfonamide], the Ki is 4.29 nM in assay [1] (setting [5]) and 22 nM in assay [2] (setting [5]). For the same compound, the EC50 in assay [3] (72 hours with compound) was found to be 69.2 nM.
In the case of `COc1cc(=O)n(C)nc1-c1cc(NS(=O)(=O)CC(F)(F)F)ccc1Oc1ccccc1` [Example 25, 2,2,2-trifluoro-N-[3-(4-methoxy-1-methyl-6-oxo-1,6-dihydropyridazin-3-yl)-4-phenoxyphenyl]ethanesulfonamide], the figures for the Ki in assay [1] (setting [4]) and in assay [2] (setting [4]) were 12.5 nM and 97.4 nM, respectively. Also, the EC50 in assay [3] (72 h incubation) was found to be 450 nM.
Consider `Cn1cc(-c2cc(NS(C)(=O)=O)ccc2Oc2ccc(F)cc2F)c(C(F)(F)F)cc1=O` [Example 5, N-{4-(2,4-difluorophenoxy)-3-[1-methyl-6-oxo-4-(trifluoromethyl)-1,6-dihydropyridin-3-yl]phenyl}methanesulfonamide], for which the Ki was 688 nM in assay [1] (setting [4]) and 922 nM in assay [2] (setting [4]). Besides, the EC50 in assay [3] (72 h incubation) was > 3000 nM.
On to `CCOc1cc(=O)n(C)cc1-c1cc(NS(=O)(=O)c2ccccc2)ccc1Oc1ccc(F)cc1F` [Example 344, N-[4-(2,4-difluorophenoxy)-3-(4-ethoxy-1-methyl-6-oxo-1,6-dihydropyridin-3-yl)phenyl]benzenesulfonamide], for which the Ki in assay [1] (setting [4]) is 5.07 nM; in assay [2] (setting [4]), 23.1 nM. For the same compound, the EC50 in assay [3] (72 h incubation) worked out at 271 nM.
Taken in the same sequence, the figures for `C/C=C/c1cc(=O)n(C)cc1-c1cc(NS(=O)(=O)CC)ccc1Oc1ccc(F)cc1F` [Example 329, N-[4-(2,4-difluorophenoxy)-3-{1-methyl-6-oxo-4-[(1E)-prop-1-en-1-yl]-1,6-dihydropyridin-3-yl]phenyl}ethanesulfonamide] were 1.71 nM, 2.98 nM and 22.7 nM.
The matching figures for `CC(=O)Nc1ccc(Oc2ccccc2)c(-c2c[nH]c(=O)c(C)c2)c1` [Example 262, N-[3-(5-methyl-6-oxo-1,6-dihydropyridin-3-yl)-4-phenoxyphenyl]acetamide]: 290 nM, 77.9 nM and 783 nM.
In the case of `Cn1cc(-c2cc(NS(C)(=O)=O)ccc2Oc2cccc(Cl)c2)ccc1=O` [Example 243, N-[4-(3-chlorophenoxy)-3-(1-methyl-6-oxo-1,6-dihydropyridin-3-yl)phenyl]methanesulfonamide], the Ki in assay [1] (setting [4]) is 257 nM; in assay [2] (setting [4]), 115 nM. In assay [3] (72 h incubation), the EC50 is 279 nM.
Turning to `CCS(=O)(=O)Nc1ccc(Oc2ccc(F)cc2F)c(-c2cn(C)c(=O)cc2NC2CC2)c1` [Example 362, N-{3-[4-(cyclopropylamino)-1-methyl-6-oxo-1,6-dihydropyridin-3-yl]-4-(2,4-difluorophenoxy)phenyl}ethanesulfonamide], the Ki in assay [1] (setting [4]) is 2.76 nM; in assay [2] (setting [4]) it was 5.81 nM. For the same compound, the EC50 in assay [3] (72 h incubation) was 33.6 nM.
With `CCOc1cc(=O)n(C)cc1-c1cc(NS(=O)(=O)CC)ccc1OC1CCC1` [Example 384, N-[4-(cyclobutyloxy)-3-(4-ethoxy-1-methyl-6-oxo-1,6-dihydropyridin-3-yl)phenyl]ethanesulfonamide], the Ki was 146 nM in assay [1] (setting [5]) and 65.3 nM in assay [2] (setting [5]). In addition, the EC50 in assay [3] (72 hours with compound) is 237 nM.
As for `CCS(=O)(=O)Nc1ccc(Oc2ccc(F)cc2F)c(-c2cn(C)c(=O)cc2-c2cnn(CCN3CCOCC3)c2)c1` [Example 345, N-[4-(2,4-difluorophenoxy)-3-(1-methyl-4-{1-[2-(morpholin-4-yl)ethyl]-1H-pyrazol-4-yl}-6-oxo-1,6-dihydropyridin-3-yl)phenyl]ethanesulfonamide], the results for the Ki in assay [1] (setting [4]) and in assay [2] (setting [4]) were 5.44 nM and 10.2 nM, respectively. Also, in assay [3] (72 h incubation), the EC50 came out at 126 nM.
